From patent publication EP4620956A1, “PARP1 INHIBITORS” (Zhejiang Yangli Pharmaceutical Technology Co., Ltd., priority 2022, dated 2024)

Experiments:
MDA-MB-436 = test: Anti-proliferative activity (CellTiter-Glo, 7 days), MDA-MB-436; type: cell-based, human; conditions: Homo sapiens, MDA-MB-436, 168 h, read-out: MDA-MB-436 IC50
MDA-MB-231 = test: Anti-proliferative activity (CellTiter-Glo, 7 days), MDA-MB-231; type: cell-based, human; conditions: Homo sapiens, MDA-MB-231, 168 h, read-out: MDA-MB-231 IC50
PARP3 = target: T1, PARP3 (Homo sapiens, UniProt Q9Y6F1); test: Inhibition of PARP3 enzyme activity (chemiluminescence); type: biochemical; conditions: ratio relative to the PARP1 enzyme activity
T1 construct: purchased BPS 80503
T1 sequence (Q9Y6F1 1-533): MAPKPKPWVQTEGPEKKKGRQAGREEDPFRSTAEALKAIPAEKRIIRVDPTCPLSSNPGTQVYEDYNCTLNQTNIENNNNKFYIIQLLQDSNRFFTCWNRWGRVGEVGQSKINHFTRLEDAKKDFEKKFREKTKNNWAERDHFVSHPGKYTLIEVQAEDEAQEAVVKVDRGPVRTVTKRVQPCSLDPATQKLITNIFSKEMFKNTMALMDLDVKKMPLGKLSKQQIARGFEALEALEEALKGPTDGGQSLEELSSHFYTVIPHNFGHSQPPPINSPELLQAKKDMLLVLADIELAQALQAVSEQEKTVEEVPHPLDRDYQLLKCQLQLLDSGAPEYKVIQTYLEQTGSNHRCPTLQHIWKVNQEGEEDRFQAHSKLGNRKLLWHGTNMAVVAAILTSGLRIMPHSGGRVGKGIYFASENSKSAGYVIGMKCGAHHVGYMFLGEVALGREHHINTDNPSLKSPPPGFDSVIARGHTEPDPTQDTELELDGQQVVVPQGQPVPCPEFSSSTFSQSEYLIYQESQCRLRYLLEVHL

PARP2 = target: T2, PARP2 (Homo sapiens, UniProt Q9UGN5); test: PARP2-DNA trapping, fluorescence polarization (FP); type: biochemical
T2 construct: purchased BPS 80502
T2 sequence (Q9UGN5 whole entry): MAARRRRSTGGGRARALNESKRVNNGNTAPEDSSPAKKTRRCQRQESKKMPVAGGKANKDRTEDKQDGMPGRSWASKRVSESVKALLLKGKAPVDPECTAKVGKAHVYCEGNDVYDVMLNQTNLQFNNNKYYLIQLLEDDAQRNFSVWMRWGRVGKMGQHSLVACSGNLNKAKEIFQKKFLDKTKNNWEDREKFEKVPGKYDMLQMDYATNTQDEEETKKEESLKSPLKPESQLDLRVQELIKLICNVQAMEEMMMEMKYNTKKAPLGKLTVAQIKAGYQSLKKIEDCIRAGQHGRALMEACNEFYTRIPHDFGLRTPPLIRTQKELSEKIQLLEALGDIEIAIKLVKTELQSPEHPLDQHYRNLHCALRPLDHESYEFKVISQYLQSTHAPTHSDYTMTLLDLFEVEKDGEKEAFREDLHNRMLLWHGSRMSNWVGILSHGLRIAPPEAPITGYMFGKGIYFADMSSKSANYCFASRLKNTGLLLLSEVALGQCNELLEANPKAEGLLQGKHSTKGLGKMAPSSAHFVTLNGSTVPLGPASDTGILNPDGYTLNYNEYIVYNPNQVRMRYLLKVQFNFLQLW

## O=C(c1cc(Cc2n[nH]c(=O)c3ccccc23)ccc1F)N1CCN(C(=O)C2CC2)CC1 [Olaparib, olaparib]
MDA-MB-436
  IC50: 0.298 µM
MDA-MB-231
  IC50: 9.52 µM
PARP3
  PARP3 multiple vs PARP1: 47
PARP2; PARP2, 0.25 hour
  Bottom: -5.4
  Hillslope: 1.2
  Top: 107.8
PARP2; PARP2, 0.5 hour
  Bottom: -2.7
  Hillslope: 1.4
  Top: 109.9
PARP2; PARP2, 1 hour
  Bottom: 2.8
  Hillslope: 2.0
  Top: 109.4
PARP2; PARP2, 2 hour
  Bottom: -2.0
  Hillslope: 2.2
  Top: 107.9
PARP2; PARP2, 4 hour
  Bottom: -1.4
  Hillslope: 1.9
  Top: 107.2
PARP2; PARP2, 8 hour
  Bottom: 1.8
  Hillslope: 2.1
  Top: 106.5
PARP2; PARP2, 24 hour
  Bottom: 0.3
  Hillslope: 2.0
  Top: 109.8
PARP2; PARP2, 48 hour
  Bottom: -1.6
  Hillslope: 1.8
  Top: 110.6
